Source: PubChem BioAssay AID2060890 (Molecular Pharmacology Branch, DTP, NCI, 2025)

Tested on: LG0703-F948-PDC complex spheroid viability
Test: Anticancer human tumor LG0703-F948-PDC patient-derived lung adenocarcinoma cell line growth inhibition [RAS]
Details: for IC50: curve of first compound; for viability, T/C: stronger effect = lower value; active = viability on the fitted dose curve at most 10% of control; inactive = the rest
Procedure, shortened: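 Tumour cells grown as complex spheroids with HUVEC endothelial cells and mesenchymal stem cells, treated with RAS pathway inhibitor combinations. Each agent spans half-log steps from near clinical Cmax, or 10 microM where Cmax is unknown.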

[1] = second compound 0.000949 µM, first compound 0.0316 µM
[2] = second compound 0.000949 µM, first compound 0.1 µM
[3] = second compound 0.000949 µM, first compound 0.316 µM
[4] = second compound 0.000949 µM, first compound 1 µM
[5] = second compound 0.000949 µM, first compound 3.16 µM
[6] = second compound 0.000949 µM, first compound 10 µM
[7] = second compound 0.003 µM, first compound 0.0316 µM
[8] = second compound 0.003 µM, first compound 0.1 µM
[9] = second compound 0.003 µM, first compound 0.316 µM
[10] = second compound 0.003 µM, first compound 1 µM
[11] = second compound 0.003 µM, first compound 3.16 µM
[12] = second compound 0.003 µM, first compound 10 µM
[13] = second compound 0.00949 µM, first compound 0.0316 µM
[14] = second compound 0.00949 µM, first compound 0.1 µM
[15] = second compound 0.00949 µM, first compound 0.316 µM
[16] = second compound 0.00949 µM, first compound 1 µM
[17] = second compound 0.00949 µM, first compound 3.16 µM
[18] = second compound 0.00949 µM, first compound 10 µM
[19] = second compound 0.03 µM, first compound 0.0316 µM
[20] = second compound 0.03 µM, first compound 0.1 µM
[21] = second compound 0.03 µM, first compound 0.316 µM
[22] = second compound 0.03 µM, first compound 1 µM
[23] = second compound 0.03 µM, first compound 3.16 µM
[24] = second compound 0.03 µM, first compound 10 µM
[25] = second compound 0.0949 µM, first compound 0.0316 µM
[26] = second compound 0.0949 µM, first compound 0.1 µM
[27] = second compound 0.0949 µM, first compound 0.316 µM
[28] = second compound 0.0949 µM, first compound 1 µM
[29] = second compound 0.0949 µM, first compound 3.16 µM
[30] = second compound 0.0949 µM, first compound 10 µM
[31] = second compound 0.3 µM, first compound 0.0316 µM
[32] = second compound 0.3 µM, first compound 0.1 µM
[33] = second compound 0.3 µM, first compound 0.316 µM
[34] = second compound 0.3 µM, first compound 1 µM
[35] = second compound 0.3 µM, first compound 3.16 µM
[36] = second compound 0.3 µM, first compound 10 µM
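Also: spheroids exposed to agents for 7 days.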
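For viability, T/C in this document: 100% = DMSO vehicle wells.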

C[C@@H](NC(=O)c1ncnc(N)c1Cl)c1ncc(C(=O)Nc2cc(C(F)(F)F)c(Cl)cn2)s1 + CCn1c(-c2cc(N3CCN(C)CC3)cnc2C(C)OC)c2c3cc(ccc31)-c1csc(n1)CC(NC(=O)C1CC1C)C(=O)N1CCCC(N1)C(=O)OCC(C)(C)C2
> 10000 nM: IC50 (second compound 0.000949 µM) | IC50 (second compound 0.003 µM)
< 31.6 nM: IC50 (second compound 0.00949 µM) | IC50 (second compound 0.03 µM) | IC50 (second compound 0.0949 µM) | IC50 (second compound 0.3 µM)
inactive: viability, T/C [1] 74.7% | viability, T/C [2] 78.6% | viability, T/C [3] 79.2% | viability, T/C [4] 76.4% | viability, T/C [5] 83.9% | viability, T/C [6] 75.6% | viability, T/C [7] 54.3% | viability, T/C [8] 46.9% | viability, T/C [9] 52.8% | viability, T/C [10] 65.1% | viability, T/C [11] 55.5% | viability, T/C [12] 68.9% | viability, T/C [13] 31.6% | viability, T/C [14] 28.8% | viability, T/C [15] 28.1% | viability, T/C [16] 30.3% | viability, T/C [17] 33.8% | viability, T/C [18] 39.8% | viability, T/C [19] 17.5% | viability, T/C [20] 17.6% | viability, T/C [21] 16.1% | viability, T/C [22] 17% | viability, T/C [23] 21.2% | viability, T/C [24] 21.5% | viability, T/C [25] 15.8% | viability, T/C [26] 9.99% | viability, T/C [27] 11.8% | viability, T/C [28] 13.7% | viability, T/C [29] 15.9% | viability, T/C [30] 13.7% | viability, T/C [31] 11.7% | viability, T/C [32] 11.5% | viability, T/C [33] 13.1% | viability, T/C [34] 9.77% | viability, T/C [35] 14.9% | viability, T/C [36] 15.3%

O=C(c1ccc(F)c(F)c1Nc1ccc(I)cc1F)N1CC(O)([C@@H]2CCCCN2)C1
inactive: viability, T/C (compound 0.00316 µM) 96.7% [middle of 4 runs] | viability, T/C (compound 0.01 µM) 73.4% [middle of 4 runs] | viability, T/C (compound 0.0316 µM) 57.7% [middle of 4 runs] | viability, T/C (compound 0.1 µM) 42.3% [middle of 4 runs] | viability, T/C (compound 0.316 µM) 30.9% [middle of 4 runs] | viability, T/C (compound 1 µM) 25.4% [middle of 4 runs]

CC(C)NCC(C(=O)N1CCN(c2ncnc3c2C(C)CC3O)CC1)c1ccc(Cl)cc1 (stereo not given) + CCn1c(-c2cccnc2C(C)OC)c2c3cc(ccc31)N1CCOC(CC(NC(=O)C(C(C)C)N(C)C(=O)C3(F)CCN(C(=O)C#CC(C)(C)N(C)C)CC3)C(=O)N3CCCC(N3)C(=O)OCC(C)(C)C2)C1
1800 nM: IC50 (second compound 0.000949 µM)
< 31.6 nM: IC50 (second compound 0.3 µM)
2750 nM: IC50 (second compound 0.003 µM)
inactive: viability, T/C [1] 103% | viability, T/C [2] 86% | viability, T/C [3] 73.6% | viability, T/C [4] 51.9% | viability, T/C [5] 47.4% | viability, T/C [6] 35.6% | viability, T/C [7] 104% | viability, T/C [8] 79.8% | viability, T/C [9] 77.9% | viability, T/C [10] 56.3% | viability, T/C [11] 50.8% | viability, T/C [12] 38.4% | viability, T/C [13] 100% | viability, T/C [14] 98% | viability, T/C [15] 65.5% | viability, T/C [16] 49% | viability, T/C [17] 52.5% | viability, T/C [18] 39.3% | viability, T/C [19] 99.3% | viability, T/C [20] 86.4% | viability, T/C [21] 67.9% | viability, T/C [22] 53.3% | viability, T/C [23] 43.1% | viability, T/C [24] 35.1% | viability, T/C [25] 74.8% | viability, T/C [26] 66% | viability, T/C [27] 51.3% | viability, T/C [28] 42.4% | viability, T/C [29] 42.5% | viability, T/C [30] 28.9% | viability, T/C [31] 46.8% | viability, T/C [32] 38.6% | viability, T/C [33] 33.6% | viability, T/C [34] 23.8% | viability, T/C [35] 27.4% | viability, T/C [36] 15.5%
511 nM: IC50 (second compound 0.0949 µM)
1420 nM: IC50 (second compound 0.03 µM)
858 nM: IC50 (second compound 0.00949 µM)

CC1(O)CCCC1n1c(=O)c(C(F)F)cc2cnc(NC3CCN(S(C)(=O)=O)CC3)nc21 (stereo not given)
inactive: viability, T/C (compound 0.1 µM) 94.2% [middle of 4 runs] | viability, T/C (compound 0.316 µM) 86.8% [middle of 4 runs] | viability, T/C (compound 1 µM) 96% [middle of 4 runs]

CC1(O)CCCC1n1c(=O)c(C(F)F)cc2cnc(NC3CCN(S(C)(=O)=O)CC3)nc21 (stereo not given) + C=CC(=O)N1CCN(c2nc(OCC3CCCN3C)nc3c(F)c(-c4nc(N)cc(C)c4C(F)(F)F)c(Cl)cc23)C(C)C1
active: viability, T/C (second compound 1 µM, first compound 10 µM) 6.44%
4160 nM: IC50 (second compound 0.01 µM)
4290 nM: IC50 (second compound 0.00316 µM)
4130 nM: IC50 (second compound 1 µM)
4250 nM: IC50 (second compound 0.1 µM)
4670 nM: IC50 (second compound 0.0316 µM)
4340 nM: IC50 (second compound 0.316 µM)
inactive: viability, T/C (second compound 0.00316 µM, first compound 0.0316 µM) 96.7% | viability, T/C (second compound 0.00316 µM, first compound 0.1 µM) 91.2% | viability, T/C (second compound 0.00316 µM, first compound 0.316 µM) 86.1% | viability, T/C (second compound 0.00316 µM, first compound 1 µM) 76.8% | viability, T/C (second compound 0.00316 µM, first compound 3.16 µM) 66.9% | viability, T/C (second compound 0.00316 µM, first compound 10 µM) 14.1% | viability, T/C (second compound 0.01 µM, first compound 0.0316 µM) 103% | viability, T/C (second compound 0.01 µM, first compound 0.1 µM) 103% | viability, T/C (second compound 0.01 µM, first compound 0.316 µM) 90.1% | viability, T/C (second compound 0.01 µM, first compound 1 µM) 72.9% | viability, T/C (second compound 0.01 µM, first compound 3.16 µM) 69% | viability, T/C (second compound 0.01 µM, first compound 10 µM) 15.8% | viability, T/C (second compound 0.0316 µM, first compound 0.0316 µM) 97.8% | viability, T/C (second compound 0.0316 µM, first compound 0.1 µM) 104% | viability, T/C (second compound 0.0316 µM, first compound 0.316 µM) 85.9% | viability, T/C (second compound 0.0316 µM, first compound 1 µM) 76.7% | viability, T/C (second compound 0.0316 µM, first compound 3.16 µM) 75.5% | viability, T/C (second compound 0.0316 µM, first compound 10 µM) 14.7% | viability, T/C (second compound 0.1 µM, first compound 0.0316 µM) 107% | viability, T/C (second compound 0.1 µM, first compound 0.1 µM) 104% | viability, T/C (second compound 0.1 µM, first compound 0.316 µM) 88% | viability, T/C (second compound 0.1 µM, first compound 1 µM) 75.2% | viability, T/C (second compound 0.1 µM, first compound 3.16 µM) 73.9% | viability, T/C (second compound 0.1 µM, first compound 10 µM) 10.9% | viability, T/C (second compound 0.316 µM, first compound 0.0316 µM) 106% | viability, T/C (second compound 0.316 µM, first compound 0.1 µM) 89.5% | viability, T/C (second compound 0.316 µM, first compound 0.316 µM) 94.9% | viability, T/C (second compound 0.316 µM, first compound 1 µM) 75.7% | viability, T/C (second compound 0.316 µM, first compound 3.16 µM) 72% | viability, T/C (second compound 0.316 µM, first compound 10 µM) 9.28% | viability, T/C (second compound 1 µM, first compound 0.0316 µM) 115% | viability, T/C (second compound 1 µM, first compound 0.1 µM) 105% | viability, T/C (second compound 1 µM, first compound 0.316 µM) 92.5% | viability, T/C (second compound 1 µM, first compound 1 µM) 76.4% | viability, T/C (second compound 1 µM, first compound 3.16 µM) 74.9%
